Data on three compounds can be found in ChEMBL document CHEMBL4033690, “Potential anti-gout constituents as xanthine oxidase inhibitor from the fruits of Stauntonia brachyanthera” (Bioorg Med Chem, 2017).

Each structure is given as a SMILES string.

This assay deals with Xanthine dehydrogenase/oxidase (Homo sapiens, UniProt P47989). In words: Inhibition of xanthine oxidase (unknown origin) using xanthine as substrate preincubated for 15 mins followed by substrate addition by spectrophotometric method.

A word on the IC50: it is the concentration at which inhibition is half-maximal.

Xanthine dehydrogenase/oxidase, sequence (P47989 whole entry): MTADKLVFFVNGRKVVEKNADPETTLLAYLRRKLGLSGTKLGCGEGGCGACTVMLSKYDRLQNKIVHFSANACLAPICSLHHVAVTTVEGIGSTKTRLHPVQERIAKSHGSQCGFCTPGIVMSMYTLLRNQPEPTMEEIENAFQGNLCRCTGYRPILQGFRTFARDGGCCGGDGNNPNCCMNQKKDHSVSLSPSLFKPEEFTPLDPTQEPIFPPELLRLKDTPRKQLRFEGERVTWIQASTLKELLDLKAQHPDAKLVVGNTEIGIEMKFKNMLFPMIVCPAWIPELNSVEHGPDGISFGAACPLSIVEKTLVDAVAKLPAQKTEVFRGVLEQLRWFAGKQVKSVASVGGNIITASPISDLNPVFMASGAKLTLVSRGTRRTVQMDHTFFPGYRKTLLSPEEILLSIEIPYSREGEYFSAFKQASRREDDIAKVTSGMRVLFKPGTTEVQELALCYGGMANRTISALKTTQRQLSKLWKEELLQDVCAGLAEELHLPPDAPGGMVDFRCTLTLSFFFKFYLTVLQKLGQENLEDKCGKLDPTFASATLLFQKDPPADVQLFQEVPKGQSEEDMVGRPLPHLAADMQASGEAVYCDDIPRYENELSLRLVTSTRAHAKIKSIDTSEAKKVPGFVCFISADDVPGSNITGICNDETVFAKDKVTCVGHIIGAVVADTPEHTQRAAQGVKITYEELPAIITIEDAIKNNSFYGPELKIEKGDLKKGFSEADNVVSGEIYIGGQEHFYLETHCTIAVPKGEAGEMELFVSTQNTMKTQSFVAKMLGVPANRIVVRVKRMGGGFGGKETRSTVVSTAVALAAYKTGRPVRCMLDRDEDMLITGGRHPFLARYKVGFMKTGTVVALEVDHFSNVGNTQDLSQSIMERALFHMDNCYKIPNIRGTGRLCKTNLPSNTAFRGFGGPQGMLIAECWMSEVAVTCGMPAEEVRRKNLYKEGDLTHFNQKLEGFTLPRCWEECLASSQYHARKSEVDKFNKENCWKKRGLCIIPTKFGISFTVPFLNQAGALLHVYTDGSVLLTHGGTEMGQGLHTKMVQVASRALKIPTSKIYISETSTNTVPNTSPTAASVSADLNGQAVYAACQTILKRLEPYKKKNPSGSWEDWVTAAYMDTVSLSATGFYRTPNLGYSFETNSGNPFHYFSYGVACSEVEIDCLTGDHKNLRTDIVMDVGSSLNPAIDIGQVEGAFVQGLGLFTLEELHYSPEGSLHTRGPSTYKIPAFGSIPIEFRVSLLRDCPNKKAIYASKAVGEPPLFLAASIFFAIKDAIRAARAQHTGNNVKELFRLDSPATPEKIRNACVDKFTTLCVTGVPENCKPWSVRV

As for `C=C1CC[C@]2(C(=O)O[C@@H]3O[C@H](CO[C@@H]4O[C@H](CO)[C@@H](O[C@@H]5O[C@@H](C)[C@H](O)[C@@H](O)[C@H]5O)[C@H](O)[C@H]4O)[C@@H](O)[C@H](O)[C@H]3O)CC[C@]3(C)C(=CC[C@@H]4[C@@]5(C)CC[C@H](O[C@@H]6O[C@H](CO)[C@@H](O)[C@H](O[C@@H]7OC[C@H](O)[C@H](O)[C@H]7O[C@@H]7O[C@@H](C)[C@H](O)[C@@H](O)[C@H]7O)[C@H]6O)C(C)(C)[C@@H]5CC[C@]43C)[C@@H]2C1`, the half-maximal inhibitory concentration (IC50) is greater than 100 µM.

In turn, `COc1cc(C(=O)OC[C@@]2(O)CO[C@@H](O[C@H]3[C@H](Oc4ccc(C(=O)O)cc4OC)O[C@H](CO)[C@@H](O)[C@@H]3O)[C@@H]2O)ccc1O` yielded an IC50 greater than 100 µM.

Take `O=c1c(O[C@@H]2O[C@H](CO)[C@@H](O)[C@H](O)[C@H]2O)c(-c2ccc(O)c(O)c2)oc2cc(O)cc(O)c12` [ISOQUERCETIN]: half-maximal inhibition (IC50) was put at 1.6 µM.
